Assay [1] addresses T1, hASIC1a (Homo sapiens, UniProt P78348).
T1 sequence (P78348 1-528): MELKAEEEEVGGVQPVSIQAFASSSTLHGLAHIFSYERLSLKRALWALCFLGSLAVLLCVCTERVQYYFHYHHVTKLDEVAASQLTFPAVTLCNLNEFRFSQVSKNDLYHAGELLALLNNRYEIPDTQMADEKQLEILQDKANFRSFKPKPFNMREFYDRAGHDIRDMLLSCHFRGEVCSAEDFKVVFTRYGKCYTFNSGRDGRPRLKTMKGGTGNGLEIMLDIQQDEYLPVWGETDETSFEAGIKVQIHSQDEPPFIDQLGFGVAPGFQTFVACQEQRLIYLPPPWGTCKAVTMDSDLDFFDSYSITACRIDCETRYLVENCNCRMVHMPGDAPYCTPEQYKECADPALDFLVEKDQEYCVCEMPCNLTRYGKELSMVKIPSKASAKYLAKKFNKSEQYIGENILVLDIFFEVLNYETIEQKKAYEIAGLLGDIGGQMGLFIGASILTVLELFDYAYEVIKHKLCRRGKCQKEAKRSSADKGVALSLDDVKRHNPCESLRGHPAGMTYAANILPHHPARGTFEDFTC
As to the kind of experiment: FlexStation/FLIPR calcium-imaging assay, acid (MES)-induced response in ASIC1a expressing cells. It is filed as cell-based. On the set-up: expressed in transfected cells. The following applies: calcium mobilization assay, HEK293, n=3-7; read-out: FPAT-ASIC1a human/HEK293/k21 IC50. The method, then:
Identification of ASIC Antagonists Using Calcium-Imaging
ASIC1a expressing HEK293 or CHO cells are grown in culture medium (DMEM with 10% FBS), in polystyrene culture flasks ([…]) at 37° C. in a humidified atmosphere of 5% CO2. Confluency of cells should be 80-90% on day of plating. Cells are rinsed with 10 ml of PBS and re-suspended by addition of culture medium and trituration with a 25 ml pipette.
The cells are seeded at a density of approximately 1×10^5 cells/ml for HEK293 and 8×10^4 for CHO cells (100 μl/well) in black-walled, clear bottom, poly-D-lysin pre-treated 96-well plates. Plated cells were allowed to proliferate for 48 h before loading with dye.
Fluo-4/AM (1 mg, Molecular Probes) is dissolved in 912 μl DMSO. The Fluo-4/AM stock solution (1 mM) is diluted with culture medium to a final concentration of 2 μM (loading solution).
The culture medium is aspirated from the wells, and 80 μl of the Fluo-4/AM loading solution is added to each well. The cells are incubated at 37° C. for 30 min. When CHO cells are used, probenicid at 2.5 mM (final concentration) is added in the loading solution.
After the loading period (15-20 min., the loading solution is aspirated and the cells are washed twice with 100 μl modified Assay Buffer (145 mM NaCl, 5 mM KCl, 5 mM CaCl2, 1 mM MgCl2, 10 mM HEPES, pH 7.4) to remove extracellular dye. Following the second wash, 100 μl modified Assay Buffer is added to each well and the fluorescence is measured in FLIPR™ or FlexStation™ (Molecular Devices, USA), or any other suitable equipment known to the skilled in the art. When CHO cells are used, probenicid at 2.5 mM (final concentration) is added in the wash buffer.
First addition: 50 μl test solution at a rate of 26 μl/sec and a starting height of 125 μl
Second addition: 50 μl MES solution (20 mM, 5 mM final concentration) at a rate of 26 μl/sec and a starting height of 115 μl.
Reading intervals: pre-incubation—120 sec. antagonist phase, addition of MES at 145 sec. and reading time with agonist 100 sec (total run time of 240 sec).
Fluorescence obtained after stimulation is corrected for the mean basal fluorescence (in modified Assay Buffer).
(§1) The MES-induced peak calcium response (or change in membrane potential), in the presence of test substance, is expressed relative to the MES response alone. Test substances that block the MES-induced calcium response (or change in membrane potential) are re-tested in triplicates. Confirmed hits are picked for further characterization by performing full dose-response curves to determine potency of each hit compound as represented by the IC50 values (i.e., the concentration of the test substance which inhibits 50% of the MES-induced calcium and/or membrane potentiation response; see, for example, FIG. 1).

The test system of assay [2] is T2, hASIC3 (h3) and/or hASIC1a (h1a).
T2 construct: EC50 (μM) in one experiment; HEK293
As to the kind of experiment: FlexStation/FLIPR assay, channel not marked in the cell. It is filed as cell-based, human. The following applies: Table H, cells without channel mark; HEK293; read-out: EC50 (μM) Flex/FLIPR.
From the text: as §1
(§2) The data shown in Table H was acquired using the FlexStation assay described in Example 1 on HEK293 cells expressing hASIC3 (h3) and/or hASIC1a (h1a).

The target of assay [3] is T1, hASIC1a. Nature of the assay: Two-electrode voltage clamp in Xenopus laevis oocytes expressing hASIC1a (OpusExpress). It is filed as cell-based. On the set-up: expressed in transfected cells; host or cells: Xenopus laevis oocytes, nuclear microinjection of cDNA (e.g. in pCDNA3). The protocol: Two-electrode voltage clamp electrophysiological assays in Xenopus laevis oocytes expressing gated ion channels are performed as follows:
Oocytes are surgically removed from adult Xenopus laevis and treated for 2 h at room temperature with 1 mg/ml type I collagenase (Sigma) in Barth's solution under mild agitation. Selected oocytes at stage IV-V are defolliculated manually before nuclear microinjection of 2.5-5 ng of a suitable expression vector, such as pCDNA3, comprising the nucleotide sequence encoding a gated ion channel subunit protein. In such an experiment, the oocytes express homomultimeric proton-gated ion channels on their surface. In an alternate experiment, one, two, three or more vectors comprising the coding sequences for distinct gated ion channel subunits are co-injected in the oocyte nuclei. In the latter case, oocytes express heteromultimeric proton-gated ion channels. […] Once impaled with the microelectrodes, oocytes are continuously superfused at 10-12 ml/min with a modified Ringer's solution containing 97 mM NaCl, 2 mM KCl, 1.8 mM CaCl2, and 10 mM HEPES brought to pH 7.4 with NaOH (Control Ringer). Test Ringer solution is prepared by replacing HEPES with MES and adjusting the pH to the desired acidic value. Compounds of the present invention are prepared in both the Control and Test Ringer solutions and applied to oocytes at room temperature through a computer-controlled switching valve system. […] Similarly, recordings can also be acquired in an automated multichannel oocytes system as the OpusExpress™ (Molecular Devices, Sunnyvale, Calif., USA).
Recordings were acquired from oocytes expressing homomeric hASIC1a using a two-electrode voltage-clamp configuration procedure as described herein.
Background: In two-electrode clamp one electrode senses voltage and the other passes current.

The target of assay [4] is T1, hASIC1a. As to the kind of experiment: Whole-cell patch clamp of acid-induced currents in cells transfected with hASIC1a. It is filed as cell-based. The following applies: Table H. On the set-up: expressed in transfected cells. The protocol:
Another example of an in vitro assessment method consists of using mammalian heterologous expression systems, which are known to those skilled in the art, and include a variety of mammalian cell lines such as COS, HEK, e.g., HEK293 and/or CHO, cells. Cell lines are transfected with gated ion channel(s) and used to perform electrophysiology as follows:
All experiments are performed at room temperature (20-25° C.) in voltage clamp using conventional whole cell patch clamp methods (Neher, E., et al. (1978) Pfluegers Arch 375:219-228).
The amplifier used is the EPC-9 (HEKA-electronics, Lambrect, Germany) run by a Macintosh G3 computer via an ITC-16 interface. Experimental conditions are set with the Pulse-software accompanying the amplifier. Data is low pass filtered and sampled directly to hard-disk at a rate of 3 times the cut-off frequency.
Pipettes are pulled from borosilicate glass using a horizontal electrode puller (Zeitz-lnstrumente, Augsburg, Germany). The pipette resistances are 2-3 MOhms in the salt solutions used in these experiments. The pipette electrode is a chloridized silver wire, and the reference is a silver chloride pellet electrode (In Vivo Metric, Healdsburg, USA) fixed to the experimental chamber. The electrodes are zeroed with the open pipette in the bath just prior to sealing.
Coverslips with the cells are transferred to a 15 μl experimental chamber mounted on the stage of an inverted microscope (IMT-2, Olympus) supplied with Nomarski optics. Cells are continuously superfused with extracellular saline at a rate of 2.5 ml/min. After giga-seal formation, the whole cell configuration is attained by suction. The cells are held at a holding voltage of −60 mV and at the start of each experiment the current is continuously measured for 45 s to ensure a stable baseline. Solutions of low pH (<7) are delivered to the chamber through a custom-made gravity-driven flowpipe, the tip of which is placed approximately 50 μm from the cell. Application is triggered when the tubing connected to the flowpipe is compressed by a valve controlled by the Pulse-software. Initially, low pH (in general, pH 6.5) is applied for 5 s every 60 s. The sample interval during application is 550 μs. After stable responses are obtained, the extracellular saline as well as the low-pH solution are switched to solutions containing the compound to be tested. The compound is present until responses of repeatable amplitude are achieved. Current amplitudes are measured at the peak of the responses, and effect of the compounds is calculated as the amplitude at compound equilibrium divided by the amplitude of the current evoked by the pulse just before the compound was included.
The following salt solutions are used: extracellular solution (mM): NaCl (140), KCl (4), CaCl2 (2), MgCl2 (4), HEPES (10, pH 7.4); intracellular solution (mM): KCl (120), KOH (31), MgCl2 (1.785), EGTA (10), HEPES (10, pH 7.2). In general, compounds for testing are dissolved in 50% DMSO at 500 fold the highest concentration used.
CHO cells were transfected with hASIC1a and used to perform full dose-inhibition curves with Compound B, and Compound R. Results are expressed as a fraction of the control peak current obtained in the absence of the test substance.

For assay [5], the target named is T3, hASIC3 (Homo sapiens, UniProt Q9UHC3).
T3 sequence (Q9UHC3 1-531): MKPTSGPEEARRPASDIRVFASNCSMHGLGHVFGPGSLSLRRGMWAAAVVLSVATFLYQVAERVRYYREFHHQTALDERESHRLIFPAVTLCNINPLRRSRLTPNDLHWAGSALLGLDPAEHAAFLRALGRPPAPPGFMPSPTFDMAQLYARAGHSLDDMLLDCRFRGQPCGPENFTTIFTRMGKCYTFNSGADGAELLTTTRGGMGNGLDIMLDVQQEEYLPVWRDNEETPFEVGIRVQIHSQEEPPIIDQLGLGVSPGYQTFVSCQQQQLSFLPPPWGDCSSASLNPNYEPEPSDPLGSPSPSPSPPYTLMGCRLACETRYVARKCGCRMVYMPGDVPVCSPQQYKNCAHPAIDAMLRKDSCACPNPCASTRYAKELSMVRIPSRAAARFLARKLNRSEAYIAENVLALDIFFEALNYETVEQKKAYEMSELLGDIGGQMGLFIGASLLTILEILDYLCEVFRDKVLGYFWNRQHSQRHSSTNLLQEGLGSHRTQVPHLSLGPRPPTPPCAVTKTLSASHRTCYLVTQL
Nature of the assay: FlexStation assay on HEK293 cells expressing hASIC3. On the set-up: expressed in transfected cells; host or cells: HEK293 cells. The following applies: FlexStation (Flex), Tables A-F; read-out: Biological Data (IC50 uM) h3 (Flex). It is filed as cell-based. The method, then:
A vial of FMP dye (Molecular Devices) is resuspended in 10.5 ml of assay buffer (48.3 mM NaCl, 93 mM NMDG, 5 mM KCl, 5 mM CaCl2, 1 mM MgCl2, 10 mM HEPES, pH 7.4). The culture medium is aspirated from the wells, and 100 μl of the FMP loading solution is added to each well. The cells are incubated at 37° C. for 30 min.
After the loading period, the loading solution is left on the cells and the membrane potential-induced fluorescence is measured in FLIPR™ or FlexStation™ (Molecular Devices, USA), or any other suitable equipment known to the skilled in the art.
For cells co-expressing ASIC1a and ASIC3 channels (e.g. HEK293 cells), membrane potential dye (FMP dye) is used and the FlexStation settings are as above.
as §1, §2

Setting [6] is: OpusExpress (OX), Tables A-F, h1a printed in some cells only, read-out: Biological Data (IC50 uM) h1a (OX).
Setting [7] is: Table H, read-out: IC50 (μM) Opus Express (h1a).

Regarding `Brc1ccc(-c2nc(N3CCNCC3)c3ccccc3n2)cc1` [Compound C, 2-(4-bromo-phenyl)-4-piperazin-1-yl-quinazoline], the IC50 in assay [1] was more than 20 µM.

For `Cc1cc(N2CCN(CCc3ccccc3)CC2)c2ccccc2n1` [Compound D, 2-methyl-4-(4-phenethyl-piperazin-1-yl)-quinoline], the EC50 in assay [2] was less than 10 µM. Also, the IC50 in assay [3] (setting [6]) and in assay [3] (setting [7]) was more than 50 µM each time.

For the molecule `Cc1cc(N2CCCN(C)CC2)nc2cc(Cl)ccc12` [Compound F, 7-chloro-4-methyl-2-(4-methyl-[1,4]diazepan-1-yl)-quinoline], in assay [2], the EC50 is less than 10 µM. Moreover, the “IC50 (μM) Patch Clamp (h1a)” value in assay [4] is recorded as “Inactive”.

`COc1ccc(-c2cc(C(=O)N3CCN(C)CC3)c3ccccc3n2)cc1OC` [Compound G, [2-(3,4-dimethoxy-phenyl)-quinolin-4-yl]-(4-methyl-piperazin-1-yl)-methanone]: in assay [2], the EC50 is more than 20 µM.

Turning to `Cc1ccc(-c2nc(Nc3ccc(C(=O)O)cc3)c3ccccc3n2)cc1` [Compound K, 4-(2-p-tolyl-quinazolin-4-ylamino)-benzoic acid], the EC50 in assay [2] is more than 10 µM. The “IC50 (μM) Patch Clamp (h1a)” value in assay [4] is listed as “Inactive”. The “IC50 (μM) Opus Express (h1a)” value in assay [3] (Table H) is “Inactive”.

For `Cc1cc(N2CCN(CC3CCCCC3)CC2)c2ccccc2n1` [Compound O, 4-(4-cyclohexylmethyl-piperazin-1-yl)-2-methyl-quinoline], in assay [2], the EC50 was more than 20 µM. The results for the IC50 in assay [5], in assay [3] (setting [6]) and in assay [3] (setting [7]) were 5 to 15 µM, 20 to 30 µM and 23.9 µM, respectively.

Consider `COc1ccc(CN2CCN(c3cc(C)nc4ccccc34)CC2)cc1` [Compound Q, 4-[4-(4-methoxy-benzyl)-piperazin-1-yl]-2-methyl-quinoline], for which the EC50 in assay [2] was less than 10 µM. The values for the IC50 in assay [5] and in assay [3] (setting [7]) were 10 to 20 µM and more than 50 µM, respectively.

Values taken from US20070197509A1, “Compositions and methods for modulating gated ion channels” (PainCeptor Pharma Corporation, priority 2005, published 2007).
